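1) Cells in 96-well plates. 2) Compound, 48 h, 5 concentrations. 3) Linear interpolation between surrounding doses. 4) Unreached endpoint = highest concentration. GI50 is the concentration that inhibits growth by half. The concentration for full growth arrest is given as TGI.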
Experiments:
Assay in all cases: growth of human tumour cells (NCI), 48 h
[1] = tested on: OVCAR-5 ovarian
[2] = tested on: BT-549 breast
[3] = tested on: NCI/ADR-RES ovarian
[4] = tested on: T-47D breast
[5] = tested on: SK-MEL-5 melanoma
[6] = tested on: MDA-MB-435
[7] = tested on: RXF 393 renal
[8] = tested on: SF-295 CNS
[9] = tested on: K-562 leukemia
[10] = tested on: SF-539 CNS

SMILES | TGI [1] | TGI [2] [µM] | TGI [3] [µM] | TGI [4] [µM] | TGI [5] | TGI [6] [µM] | TGI [7] | TGI [8] | TGI [9] | TGI [10] | GI50 [1] | GI50 [5] | GI50 [7] | GI50 [10] | GI50 [8] | GI50 [9] | GI50 [2] [µM] | GI50 [4] [µM] | GI50 [6] [µM] | GI50 [3] [µM]
CN1CC[C@]23c4c5ccc(O)c4OC2c2[nH]ncc2C[C@H]3[C@H]1C5 (some centres not stated) | > 100 µM | > 100 | > 100 | > 100 | > 100 µM | > 100 | > 100 µM | > 100 µM | > 100 µM |  |  |  |  |  |  |  |  |  |  | 
CCOC(=O)n1c2ccccc2c(=O)n1CCO | > 100 µM | > 100 | > 100 | > 100 | > 100 µM |  | > 100 µM | > 100 µM | > 100 µM | > 100 µM |  |  |  |  |  |  |  |  |  | 
CCOc1ccc(/C=C2/C(=O)N=C(N)N=C2N)cc1OCC | > 100 µM |  |  |  | > 100 µM |  | > 100 µM | > 100 µM | > 100 µM |  |  |  |  |  |  |  |  |  |  | 
O=C(O)C1=C(C(=O)O)Oc2ccccc2O1 | > 100 µM |  |  |  |  |  | > 100 µM | > 100 µM | > 100 µM | > 100 µM |  |  |  |  |  |  |  |  |  | 
CC1(C)CC(O)CC(C)(C)N1.CC1(C)CC(O)CC(C)(C)N1.CC1(C)CC(O)CC(C)(C)N1.CC1(C)CC(O)CC(C)(C)N1.Cl.[Ti] | > 100 µM |  |  |  | > 100 µM |  | > 100 µM | > 100 µM | > 100 µM | > 100 µM | > 100 µM | > 100 µM | > 100 µM | > 100 µM | > 100 µM | > 100 µM |  |  |  | 
CC(C)c1cc(C(C)C)c(Cl)c(Cl)c1O (tested in a mixture with another compound) | > 100 µM | 40.1 | > 100 |  | 24.3 µM | 46.1 | 32.5 µM | 40.9 µM | 37.9 µM | 49 µM |  |  |  |  |  |  |  |  |  | 
O=S(=O)(Cc1ccccc1)SCc1ccccc1 | > 100 µM |  |  |  | 48.5 µM |  | 65.2 µM | 65.7 µM | 33.5 µM | 37.8 µM |  |  |  |  |  |  |  |  |  | 
Nc1c(-c2nc3ccccc3s2)[n+]([O-])c2ccccc2[n+]1[O-] | > 100 µM |  |  |  | 40.4 µM |  |  | 72.5 µM | > 100 µM | 78.8 µM |  |  |  |  |  |  |  |  |  | 
Nc1nc(-c2ccccc2)cc(-c2cc(Cl)ccc2O)n1 | > 100 µM |  |  |  |  |  | > 100 µM | > 100 µM | > 100 µM | > 100 µM |  |  |  |  |  |  |  |  |  | 
NNC(=O)N/N=C1\CNC(=O)C(=O)C1c1nc2ccccc2s1 (configuration not stated) | > 100 µM |  |  |  | > 100 µM |  | > 100 µM | > 100 µM | > 100 µM | > 100 µM |  |  |  |  |  |  |  |  |  | 
CC1(C)OC2OC(COC(=O)C(c3ccccc3)c3ccccc3)C3OC(C)(C)OC3C2O1 (configuration not stated) | > 100 µM |  |  |  | 24.4 µM |  | > 100 µM | > 100 µM | > 100 µM | > 100 µM | > 100 µM |  |  |  |  |  |  |  |  | 
CC(=O)c1c(O)c2c([nH]c1=O)CCCC2 |  |  |  |  |  |  | 67.6 µM | 39.7 µM | > 100 µM |  |  |  |  |  |  |  |  |  |  | 
c1ccc2c(c1)[O][Sn][O]2 | > 150 µg/mL |  |  |  | > 150 µg/mL |  | 120 µg/mL | > 150 µg/mL | > 150 µg/mL | > 150 µg/mL | > 150 µg/mL | 20.7 µg/mL | 23.4 µg/mL | 26.2 µg/mL | > 150 µg/mL | 91.6 µg/mL |  |  |  | 
COc1cc(OC)c(/C=C/C(=O)c2c(N)cc(OC)cc2OC)c(OC)c1 | > 100 µM | > 100 |  | > 100 | > 100 µM | 0.514 | 4.7 µM |  | > 100 µM | > 25.2 µM | 2.51 µM | 0.332 µM | 0.623 µM | 0.365 µM | 0.397 µM | 0.305 µM | 31.7 | 0.478 | 0.0776 | 
CC(C)=CC(=O)CC(=O)C(=O)NCCNC(=O)C(=O)CC(=O)C=C(C)C | > 50 µM |  |  |  |  |  | > 50 µM | > 50 µM |  | > 50 µM |  |  |  |  |  |  |  |  |  | 
CCOC(=O)COc1cccc2occc(=O)c12 | > 100 µM |  |  |  | > 100 µM |  |  | > 100 µM | > 100 µM | > 100 µM |  |  |  |  |  |  |  |  |  | 
Cc1ccc(-c2nc(C(Cl)Cl)nc3cc(C)nn23)cc1 | 6.72 µM | > 100 | 5.73 | > 100 | > 100 µM |  | 2.36 µM | 6.71 µM | > 100 µM | > 100 µM | 2.22 µM | 3.5 µM | 0.673 µM | 4.14 µM | 2.1 µM | 2.3 µM | 9.68 | 2.86 |  | 1.18
COC(=O)c1ccc2c(c1)C(=O)c1c-2n(CCCCl)c(=O)c2cc(OC)c(OC)cc12 | > 100 µM |  | > 100 | > 100 | > 100 µM | > 100 |  | > 100 µM | > 100 µM |  | > 100 µM | > 100 µM |  |  | > 100 µM | > 100 µM |  | > 100 | > 100 | > 100
O=CC(O)C(O)C(OC1OC(CO)C(O)C(O)C1O)C(O)CO (configuration not stated) (tested in a mixture with another compound) | > 100 µM |  | > 100 | > 100 | > 100 µM | > 100 | > 100 µM | > 100 µM | 98.7 µM | > 100 µM |  |  |  |  |  |  |  |  |  | 
CCC1=C(c2ccc(OC)cc2)CC[C@]2(CCNC2=O)[C@@H]1C | > 100 µM |  | > 92.2 | > 91.1 | 31.1 µM | 47.2 | > 100 µM | > 100 µM | 48.7 µM | 54.8 µM |  |  |  |  |  |  |  |  |  | 
COc1ccc2c3c(c(C(=O)O)oc13)C(CCC(=O)O)CC2 (configuration not stated) |  |  |  |  | > 100 µM |  | > 100 µM | > 100 µM |  | > 100 µM |  |  |  |  |  |  |  |  |  | 
Nc1n[nH]c2ccc([C@@H]3Nc4c(F)cc5[nH]ncc5c4[C@H]4C5CCC(C5)[C@@H]34)cc12 (some centres not stated) | > 55.7 µM | > 31.8 | 5.84 | > 100 | 4.94 µM | 0.161 |  | 18.4 µM | > 52.1 µM | 0.598 µM | 0.612 µM | 0.6 µM |  | 0.157 µM | 0.11 µM | 0.0546 µM | 0.374 | 0.509 | 0.0327 | 0.234
O=c1c2cccc3cccc(c4n1CCCN=4)c32 | > 100 µM |  |  |  | > 100 µM |  | > 100 µM | > 100 µM | > 100 µM | > 100 µM |  |  |  |  |  |  |  |  |  | 

From PubChem BioAssay (NCI)
